Laboratory results as given in patent publication US7632863B2, “3,4,5,4′-tetramethoxyl-α,β-diphenylethane-3′-O-sodium sulphate and its use” (The Jian Cell Biomedical Research Co., Ltd., priority 2007, dated 2009).
Like-named read-outs stand apart in the source and are kept apart here.

Legend:
[1] = LD50 determination, tail vein injection; format: in vivo, mice; conditions: both sexes, KunMing (KM), mouse, in vivo, intravenous, KM mice, tail vein injection
Protocol: (§1) 1. Experimental animal: KunMing (KM) mice, provided by Shanghai Slac Laboratory Animal Co., Ltd., half and half of female and male, 6 groups, ten in each group, marked by bitter acid.
(§2) 2. […] Preparing medical solution of equal ratio: dissolving with 0.9% NaCl to prepare the medical solution with the concentration of 336 mg/7 ml, 316.96 mg/7 ml, 299.32 mg/7 ml, 282.52 mg/7 ml, 266.84 mg/7 ml, 252 mg/7 ml.
(§3) 3. Dosage for administration: with 0.5 ml/20 g bottom up.
(§4) 4. Means of administration: tail vein injection
(§5) 5. Experimental method: observing at 0.25 h, 0.5 h, 1 h, 2 h, 4 h, 24 h respectively after administration; then observing once every day 14 days; putting the mice still alive to death on the 15th day and recording the death rate.

KunMing (KM) mice = test: LD50 determination, tail vein injection; format: in vivo; conditions: tail vein injection
Protocol: as §1, §2, §3, §4, §5

COc1ccc(CCc2cc(OC)c(OC)c(OC)c2)cc1OS(=O)(=O)[O-].[Na+] [AS, 3,4,5,4′-tetramethoxyl-α,β-diphenylethane-3′-O-sodium sulphate]
LD50 at 14 days ([1]; observed 14 days, read-out: LD50): 1080 mg/kg
LD50 at 14 days ([1]; read-out: LD50 (Feiller correction) 95% confidence interval): 1030 to 1130 mg/kg
Death rate in total % Total (KunMing (KM) mice; 900 mg/kg): 0%
Death rate in total % ♀ (KunMing (KM) mice; 900 mg/kg): 0%
Death rate in total % ♂ (KunMing (KM) mice; 900 mg/kg): 0%
Deaths days 1 ♀ (KunMing (KM) mice; 900 mg/kg): 0
Deaths days 1 ♂ (KunMing (KM) mice; 900 mg/kg): 0
Deaths days 2 ♀ (KunMing (KM) mice; 900 mg/kg): 0
Deaths days 2 ♂ (KunMing (KM) mice; 900 mg/kg): 0
Deaths days 3 ♀ (KunMing (KM) mice; 900 mg/kg): 0
Deaths days 3 ♂ (KunMing (KM) mice; 900 mg/kg): 0
Deaths days 4 ♀ (KunMing (KM) mice; 900 mg/kg): 0
Deaths days 4 ♂ (KunMing (KM) mice; 900 mg/kg): 0
Deaths hours 0-4 ♀ (KunMing (KM) mice; 900 mg/kg): 0
Deaths hours 0-4 ♂ (KunMing (KM) mice; 900 mg/kg): 0
Death rate in total % Total (KunMing (KM) mice; 953 mg/kg): 0%
Death rate in total % ♀ (KunMing (KM) mice; 953 mg/kg): 0%
Death rate in total % ♂ (KunMing (KM) mice; 953 mg/kg): 0%
Deaths days 1 ♀ (KunMing (KM) mice; 953 mg/kg): 0
Deaths days 1 ♂ (KunMing (KM) mice; 953 mg/kg): 0
Deaths days 2 ♀ (KunMing (KM) mice; 953 mg/kg): 0
Deaths days 2 ♂ (KunMing (KM) mice; 953 mg/kg): 0
Deaths days 3 ♀ (KunMing (KM) mice; 953 mg/kg): 0
Deaths days 3 ♂ (KunMing (KM) mice; 953 mg/kg): 0
Deaths days 4 ♀ (KunMing (KM) mice; 953 mg/kg): 0
Deaths days 4 ♂ (KunMing (KM) mice; 953 mg/kg): 0
Deaths hours 0-4 ♀ (KunMing (KM) mice; 953 mg/kg): 0
Deaths hours 0-4 ♂ (KunMing (KM) mice; 953 mg/kg): 0
Death rate in total % Total (KunMing (KM) mice; 1009 mg/kg): 40%
Death rate in total % ♀ (KunMing (KM) mice; 1009 mg/kg): 20%
Death rate in total % ♂ (KunMing (KM) mice; 1009 mg/kg): 60%
Deaths days 1 ♀ (KunMing (KM) mice; 1009 mg/kg): 0
Deaths days 1 ♂ (KunMing (KM) mice; 1009 mg/kg): 0
Deaths days 2 ♀ (KunMing (KM) mice; 1009 mg/kg): 0
Deaths days 2 ♂ (KunMing (KM) mice; 1009 mg/kg): 0
Deaths days 3 ♀ (KunMing (KM) mice; 1009 mg/kg): 0
Deaths days 3 ♂ (KunMing (KM) mice; 1009 mg/kg): 0
Deaths days 4 ♀ (KunMing (KM) mice; 1009 mg/kg): 0
Deaths days 4 ♂ (KunMing (KM) mice; 1009 mg/kg): 0
Deaths hours 0-4 ♀ (KunMing (KM) mice; 1009 mg/kg): 1
Deaths hours 0-4 ♂ (KunMing (KM) mice; 1009 mg/kg): 3
Death rate in total % Total (KunMing (KM) mice; 1069 mg/kg): 80%
Death rate in total % ♀ (KunMing (KM) mice; 1069 mg/kg): 80%
Death rate in total % ♂ (KunMing (KM) mice; 1069 mg/kg): 80%
Deaths days 1 ♀ (KunMing (KM) mice; 1069 mg/kg): 0
Deaths days 1 ♂ (KunMing (KM) mice; 1069 mg/kg): 0
Deaths days 2 ♀ (KunMing (KM) mice; 1069 mg/kg): 0
Deaths days 2 ♂ (KunMing (KM) mice; 1069 mg/kg): 0
Deaths days 3 ♀ (KunMing (KM) mice; 1069 mg/kg): 0
Deaths days 3 ♂ (KunMing (KM) mice; 1069 mg/kg): 0
Deaths days 4 ♀ (KunMing (KM) mice; 1069 mg/kg): 0
Deaths days 4 ♂ (KunMing (KM) mice; 1069 mg/kg): 0
Deaths hours 0-4 ♀ (KunMing (KM) mice; 1069 mg/kg): 4
Deaths hours 0-4 ♂ (KunMing (KM) mice; 1069 mg/kg): 4
Death rate in total % Total (KunMing (KM) mice; 1132 mg/kg): 60%
Death rate in total % ♀ (KunMing (KM) mice; 1132 mg/kg): 60%
Death rate in total % ♂ (KunMing (KM) mice; 1132 mg/kg): 60%
Deaths days 1 ♀ (KunMing (KM) mice; 1132 mg/kg): 0
